# Results taken from patent EP3811940B1, “SUBSTITUTED 4,5'-BITHIAZOLES AS INHIBITORS OF THE HUMAN DNA TOPOISOMERASE II” (Kemijski Institut, priority 2019, dated 2021).
# What was measured:
# Assay type in all cases: biochemical
# human topo IIα [1] = target: T1, human topo IIα (Homo sapiens, UniProt P11388); assay: HTS relaxation assay of human topo IIα; conditions: screening at 7.8, 31.5, 125 and 500 µM
# T1 construct: purchased Inspiralis (Norwich, UK)
# Protocol: The 14 selected compounds from the class of substituted 4,5'-bithiazoles were experimentally assayed if they inhibit catalytic activity of human topo IIα using an established high-throughput screening (HTS) relaxation assay for human topo IIα [24].
# The HTS assays primarily served to select compounds for further evaluation.
# Plate was rehydrated using wash buffer (20 mM Tris-HCl (pH = 7.6), 137 mM NaCl, 0.005 % (w/v) BSA, 0.05 % (v/v) TWEEN-20®) and biotinylated oligonucleotide was immobilized onto the wells. Next, the excess oligonucleotide was washed off with wash buffer. Enzyme assay was carried out in reaction volume of 30 µL using 0.75 µg supercoiled plasmid pNO1 as a substrate and human topo IIα. Enzyme was diluted to the appropriate concentration with dilution buffer comprised of 50 mM Tris-Hcl (pH = 7.5), 100 mM NaCl, 1 mM DTT, 0.5 mM EDTA, 50 % (v/v) glycerol and 50 µg/mL albumin. Tested compounds (0.3 µL) were added as a stock solution in DMSO and final concentration of DMSO was 1 %, respectively. Reactions were incubated at 37 °C for 30 min, and TF buffer (50 mM NaOAc (pH = 5.0), 50 mM NaCl, 50 mM MgCl2) was added to the wells and incubated at room temperature for additional 30 min to allow the triplex biotin-oligonucleotid-plasmid formation. To eliminate the aggregation and non-specific inhibition a surfactant (TWEEN-20®) was added to the reaction mixture. Unbound plasmid was washed off with TF buffer and stained with the DNA-detection Dye in the T10 buffer (10 mM Tris-HCl (pH = 8) and 1 mM EDTA) was added. After mixing, fluorescence was read using Tecan fluorimeter (Excitation: 485 nm and Emission: 535 nm). Screening was performed at the inhibitor concentrations of 7.8, 31.5, 125 and 500 µM. IC50 values were calculated using GraphPad Prism 6.0 software and represent the concentrations of inhibitors where residual activity of the enzyme was 50 % [24].
# human topo IIα [2] = target: T1, human topo IIα; assay: kDNA decatenation assay catalysed by human topo IIα; conditions: for % Decatenated Assay 1 / % Decatenated Assay 2: % of decatenated kDNA; for % Decatenated Average: average of two assays
# Protocol: One U of human topo II (α or β) was incubated with 200 ng kDNA in a 30 µL reaction at 37°C for 30 minutes under the following conditions: 50 mM Tris HCl (pH 7.5), 125 mM NaCl, 10 mM MgCl2, 5 mM DTT, 0.5 mM EDTA, 0.1 mg/ml bovine serum albumin (BSA) and 1 mM ATP. Compounds 1 and 9 were serially diluted in DMSO and added to the reaction mixture before the addition of the enzyme. […] Each reaction was then stopped by the addition of 30 µL chloroform/iso-amyl alcohol ([…]) and 30 µL Stop Dye (40 % sucrose (w/v), 100 mM Tris.HCl (pH 7.5), 10 mM EDTA, 0.5 µg/mL bromophenol blue), before being loaded on a 1% TAE gel run at 85 V for 90 minutes. Assays were performed at 4 concentrations of ligand: 3.9, 31.5, 125 and 500 µM. The final DMSO concentration in all reactions was 1 % (v/v).
# Bands were visualized by the ethidium bromide staining for 15 minutes and destaining for subsequent 10 minutes. Gels were scanned using the documentation equipment (GeneGenius, Syngene, Cambridge, UK) and inhibition levels were calculated from band data obtained with gel scanning software (GeneTools, Syngene, Cambridge,UK). Experiment was performed in duplicates for all compounds.
# human topo IIα [3] = target: T1, human topo IIα; assay: ATP hydrolysis (ATPase) assay coupled to NADH oxidation
# Protocol: To investigate if our compounds can inhibit the ATP hydrolysis, catalysed by human topo IIα, first ATP hydrolysis assay was performed for compound 1. This assay is coupled to the oxidation of NADH, which was indicated by the decrease of optical density at 340 nm. Etoposide was used as a control compound.
# Compounds were analyzed using a linked assay in which the ADP produced by the hydrolysis of ATP leads to conversion of NADH to NAD by a pyruvate kinase/lactate dehydrogenase mix. The disappearance of NADH is monitored at 340 nm. A mix of assay buffer (5 µL of 10X buffer per assay: final conc. 20 mM Tris-HCl, 5 mM magnesium acetate, 125 mM potassium acetate, 2 mM DTT, pH 7.9), linear pBR322 (1.5 µL of 1mg/mL per assay), phosphoenol pyruvate (0.5 µL of 80 mM per assay), pyruvate kinase/lactate dehydrogenase mix (0.75 µL per assay), NADH (1 µL of 20 mM per assay) and water (34.35 µL per assay) was made. 41.1 µL was aliquoted into the wells of a 384-well microtitre plate. […] 5 µL of the dilution buffer or human topo IIα (200 nM stock giving 12 nM final concentration) were then added and mixed. The change in OD340 was then measured in a plate reader over a period of about 10 minutes (called the prerun). 3.4 µL of 30 mM ATP was then added and the OD340 monitored for up to 30 minutes. Assays were performed at 37 °C. The final DMSO concentration in all the reactions was 1 % (v/v). Assays were performed at 3.9, 31.5, 125, and 500 µM final concentrations of the investigated compound 1. Compound were serially diluted in DMSO and added to the reaction before the addition of the enzyme. Control compound for was Etoposide. Determination if compound 1 from class of substituted 4,5'-bithiazoles inhibits ATPase activity of human topo II enzyme was performed in collaboration with Inspiralis.
# T1 sequence (P11388 whole entry): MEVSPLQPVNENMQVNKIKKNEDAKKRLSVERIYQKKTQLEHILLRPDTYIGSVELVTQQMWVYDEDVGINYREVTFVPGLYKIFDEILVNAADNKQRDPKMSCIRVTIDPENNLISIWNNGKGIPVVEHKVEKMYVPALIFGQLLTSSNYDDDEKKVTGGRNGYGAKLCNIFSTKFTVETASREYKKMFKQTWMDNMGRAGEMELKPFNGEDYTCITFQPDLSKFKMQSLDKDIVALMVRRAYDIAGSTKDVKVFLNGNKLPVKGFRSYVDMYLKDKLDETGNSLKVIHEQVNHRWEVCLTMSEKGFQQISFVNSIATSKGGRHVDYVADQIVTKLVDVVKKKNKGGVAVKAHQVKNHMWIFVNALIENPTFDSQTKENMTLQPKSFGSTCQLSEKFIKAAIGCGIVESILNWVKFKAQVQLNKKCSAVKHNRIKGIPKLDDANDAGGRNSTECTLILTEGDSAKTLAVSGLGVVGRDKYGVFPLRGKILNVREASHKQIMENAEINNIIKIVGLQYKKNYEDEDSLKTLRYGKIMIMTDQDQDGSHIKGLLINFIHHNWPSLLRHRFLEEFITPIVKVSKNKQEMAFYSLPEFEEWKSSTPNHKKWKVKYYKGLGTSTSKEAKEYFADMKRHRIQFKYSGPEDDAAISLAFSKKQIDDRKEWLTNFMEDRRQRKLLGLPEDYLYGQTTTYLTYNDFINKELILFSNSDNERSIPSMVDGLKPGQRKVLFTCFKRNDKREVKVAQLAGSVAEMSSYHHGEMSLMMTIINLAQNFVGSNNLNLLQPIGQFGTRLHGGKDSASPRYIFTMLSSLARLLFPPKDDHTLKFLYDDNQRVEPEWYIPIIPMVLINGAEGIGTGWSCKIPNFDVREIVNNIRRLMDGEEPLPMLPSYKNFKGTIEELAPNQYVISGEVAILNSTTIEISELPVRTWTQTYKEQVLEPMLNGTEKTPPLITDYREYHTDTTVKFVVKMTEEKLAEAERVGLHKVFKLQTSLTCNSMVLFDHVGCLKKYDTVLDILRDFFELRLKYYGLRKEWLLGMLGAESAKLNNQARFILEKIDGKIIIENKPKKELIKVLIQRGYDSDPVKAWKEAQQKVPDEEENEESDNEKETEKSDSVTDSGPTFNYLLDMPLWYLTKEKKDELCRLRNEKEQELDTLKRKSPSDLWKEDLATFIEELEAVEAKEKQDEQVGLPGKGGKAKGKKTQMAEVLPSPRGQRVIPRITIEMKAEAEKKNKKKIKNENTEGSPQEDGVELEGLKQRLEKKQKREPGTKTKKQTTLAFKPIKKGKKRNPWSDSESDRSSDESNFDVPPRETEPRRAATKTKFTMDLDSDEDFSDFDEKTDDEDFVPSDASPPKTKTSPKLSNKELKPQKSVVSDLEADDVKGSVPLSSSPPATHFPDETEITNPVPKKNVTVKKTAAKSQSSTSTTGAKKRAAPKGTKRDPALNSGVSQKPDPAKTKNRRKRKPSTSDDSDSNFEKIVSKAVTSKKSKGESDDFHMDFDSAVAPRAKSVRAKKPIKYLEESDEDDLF
IC50 (human topo IIα [1]) [µM],% Decatenated Assay 1 (human topo IIα [2]; 3.9 µM) [%],% Decatenated Assay 2 (human topo IIα [2]; 3.9 µM) [%],% Decatenated Average (human topo IIα [2]; 3.9 µM) [%],% Decatenated Assay 1 (human topo IIα [2]; 31.5 µM) [%],% Decatenated Assay 2 (human topo IIα [2]; 31.5 µM) [%],% Decatenated Average (human topo IIα [2]; 31.5 µM) [%],inhibition at 125 µM (human topo IIα [2]; 125 µM) [%],% Decatenated Assay 1 (human topo IIα [2]; 125 µM) [%],% Decatenated Assay 2 (human topo IIα [2]; 125 µM) [%],% Decatenated Average (human topo IIα [2]; 125 µM) [%],inhibition at 500 µM (human topo IIα [2]; 500 µM) [%],% Decatenated Assay 1 (human topo IIα [2]; 500 µM) [%],% Decatenated Assay 2 (human topo IIα [2]; 500 µM) [%],% Decatenated Average (human topo IIα [2]; 500 µM) [%],inhibition at 125 µM (human topo IIα [3]; first parallel) [%],inhibition at 125 µM (human topo IIα [3]; second parallel) [%],inhibition at 31.5 µM (human topo IIα [2]; 31.5 µM) [%],% of inhibition of decatenation (human topo IIα [2]; 125 µM),% of inhibition of decatenation (human topo IIα [2]; 500 µM),Compound
60,98.7,99.2,98.9,99.4,97.9,98.7,11.9,89.5,86.7,88.1,67.3,34,31.3,32.7,,,,,,"CC(=O)Nc1ccc(Nc2nc(-c3sc(NC(C)=O)nc3C)cs2)cc1 [Compound 9, N-(4-((2'-acetamido-4'-methyl-[4,5'-bithiazol]-2-yl)amino)phenyl)acetamide]"
33.4,100,91,95.5,72.4,89.4,80.5,,0,0,0,,0,0,0,75,85,19.1,full inhibition,full inhibition,"Cc1nc(N)sc1-c1csc(Nc2ccc(C(F)(F)F)cc2)n1 [Compound 1, 4'-methyl-N2-(4-(trifluoromethyl)phenyl)-[4,5'-bithiazole]-2,2'-diamine]"
,,,,,,,,,,,,,,,70,63,,,,"COc1cc([C@@H]2c3cc4c(cc3[C@@H](O[C@@H]3O[C@@H]5CO[C@@H](C)O[C@H]5[C@H](O)[C@H]3O)[C@H]3COC(=O)[C@H]23)OCO4)cc(OC)c1O [Etoposide, etoposide, reference compound]"
